According to patent US4168206A, “Impregnated disk method for testing antifungal susceptibility” (Philadelphia College of Osteopathic Medicine, priority 1977, dated 1979):
Values after ≈ are worked out from the molar mass of the structure shown. Where two headings read alike, the source gives them in different places.

Experiments:
Cryptococcus neoformans [1] = test: MIC by impregnated disk method, Cryptococcus neoformans; format: cell-based; conditions: Cryptococcus neoformans
Description: (§1) Stock solutions of the antifungal agents to be tested are preferably prepared by diluting the antifungal agents in the proper nutrient medium. It is presently preferred to prepare dilutions in 10 ml of the proper medium to give the following final concentrations when applied to the disks (all quantities in micrograms per milliliter): 0.05, 0.08, 0.09, 0.1; 0.1 increment increases to 0.9, 1.0; 0.5 increment increases to 10.0; and 12.0, 14.0, 20.0, 25.0 and 50.0. Disks have been prepared by placing 0.05 ml of the above dilutions of antifungal agent containing medium on 6.5 mm diameter disks in 0.01 or 0.02 ml increments. The impregnated disks are then allowed to dry at a temperature preferably below about 10° C. […] The disks may also be dried by a lyophilization or freeze drying process.
(§2) To perform the tests in accordance with the present inventions, disks impregnated with various concentrations of antifungal agent and nutrient medium and a control disk impregnated only with the corresponding nutrient medium are placed on the fungus to be tested which has been applied to the non-nutrient medium. The disks are the inoculated non-nutrient medium are then incubated at a suitable temperature for a sufficient time to promote growth of the fungus. Any temperature is suitable if it will promote growth of the fungus without adversely affecting the fungus or the activity of the antifungal agent or agents tested. The time of incubation can be determined by observing the extent of growth around the control disk. […] The zones of growth or inhibition around the disks were read at 6, 12, 24, 36 and 48 hours after the disks were placed on the tested fungus.
(§3) The minimum inhibitory concentration is defined as the lowest concentration of antifungal agent which inhibits visible growth. The disks containing concentrations of antifungal agents below the minimum inhibitory concentration show circumscribed growth of the fungus around the disk. Disks containing concentrations of antifungal agent at or above the minimum inhibitory concentration show no circumscribed growth.
(§4) Clinical isolates of various fungi listed in Table 1 were obtained from different patients diagnosed as having fungal infections. The fungal inocula were prepared by using a 24-48 hour cultures grown in yeast nitrogen base containing 1% glucose and 0.15% asparagine. After centrifuging, the supernatant was removed, the sedimented cells were washed twice with sterile distilled water and a cell suspension was adjusted to 80% transmission at 520 nm using a Beckman DB-GT grating spectrophotometer.
(§5) Sterile liquified 2% purified agar was placed in petri dishes and allowed to harden. The surface of the agar was inoculated with a sterile cotton swab saturated with a suspension of an organism. The uniformly swabbed plates were then allowed to dry.
(§6) Disks were prepared using the dilutions described above for amphotericin B, nystatin and 5-fluorocytosine. 0.05 ml of the dilutions of each antifungal agent diluted with the appropriate nutrient medium were pipetted on 6.5 mm diameter disks. The disks were dried at 4° C. after each application. Control disks were also prepared.
(§7) Several test disks and a control disk were placed in each petri dish containing the inoculated agar. The disks and petri dishes were then incubated at 29° C. and the minimum inhibitory concentration of the various concentrations of the antifungal agents were read at 6, 12, 24, 36 and 48 hours.
(§8) In 10 duplicate runs with each strain tested, the variation in minimum inhibitory concentration averaged ±0.05 μg/ml.

C. tropicalis [2] = test: MIC by broth dilution method, Candida tropicalis; format: cell-based; conditions: Candida tropicalis, read-out: Minimum Inhibitory Concentration, Broth
Description: (§9) The preparation of the nutrient media, the antifungal agents and the fungi to be tested in the present invention are similar to those reported in S. Shadomy and A. Espinel-Ingroff, "Susceptibility Testing Of Antifungal Agents", Ch. 63, pp. 569-574 in E. H. Lennett, E. H. Spaulding, and J. P. Truant, Eds., Manual Of Clinical Microbiology, 2nd Ed., American Society for Microbiology, Washington, D.C. (1974). This publication describes the susceptibility testing of antifungal agents, namely, amphotericin B, nystatin and 5-fluoro-cytosine (5-FC), by the "broth dilution method" and the "semisolid agar dilution method". At pages 570-571, it is stated:
as §8
(§10) *Broth dilution method conducted in accordance with S. Shadomy and E.
(§11) Espinel-Ingroff, "Susceptibility Testing of Antifungal Agents", Ch. 63,
(§12) pp. 569-574 in E. H. Spaulding and J. P. Truant, Eds., Manual Of Clinical
(§13) Microbiology, 2nd Ed., American Society for Microbiology, Washington, […]

Torulopsis glabrata = test: MIC by impregnated disk method, Torulopsis glabrata; format: cell-based; conditions: Nakaseomyces glabratus, read-out: Minimum Inhibitory Concentration, Disk
Description: as §1, §2
(§14) The minimum inhibitory concentration is defined as the lowest concentration of antifungal agent which inhibits visible growth. […]
(§15) Several test disks and a control disk were placed in each petri dish containing the inoculated agar. The disks and petri dishes were then incubated at 29° C. and the minimum inhibitory concentration of the various concentrations of the antifungal agents were read at 6, 12, 24, 36 and 48 hours. […]

Trichosporon sp. [3] = test: MIC by impregnated disk method, Trichosporon sp.; format: cell-based; conditions: Trichosporon, read-out: Minimum Inhibitory Concentration, Disk
Description: as §1, §2, §14, §15

[4] = cited from earlier work
Trichosporon sp. [5] = test: MIC by broth dilution method, Trichosporon sp.; format: cell-based; conditions: Trichosporon, read-out: Minimum Inhibitory Concentration, Broth
Description: as §9, §8, §10, §11, §12, §13

C. tropicalis [6] = test: MIC by impregnated disk method, Candida tropicalis; format: cell-based; conditions: Candida tropicalis, read-out: Minimum Inhibitory Concentration, Disk
Description: as §1, §2, §14, §15

Geotrichum candidum = test: MIC by broth dilution method, Geotrichum candidum; format: cell-based; conditions: read-out: Minimum Inhibitory Concentration, Broth
Description: as §9, §8, §10, §11, §12, §13

Cryptococcus neoformans [7] = test: MIC by broth dilution method, Cryptococcus neoformans; format: cell-based; conditions: Cryptococcus neoformans
Description: as §9, §8, §10, §11, §12, §13

Candida albicans [8] = test: Minimum fungicidal concentration by disk method; format: cell-based; conditions: 48 h
Description: Minimum fungicidal concentration is defined as the lowest concentration of antifungal agent from which subcultures were negative or where no overgrowth occurs. In tests of Candida albicans, the minimum inhibitory concentration can usually be determined at about 24 hours. Minimum fungicidal concentration may be determined by incubation for an additional 24 hours. At concentrations below the minimum fungicidal concentration, overgrowth occurs by 48 hours.
The minimal fungicidal concentrations of amphotericin B for the first 6 isolates of Candida albicans listed in Table 1 were determined by incubating the disks and organisms for 48 hours. At concentrations below the minimum fungicidal concentration, overgrowth occurred by 48 hours.

Candida albicans [9] = test: MIC by impregnated disk method, Candida albicans; format: cell-based; conditions: Candida albicans
Description: as §1, §2, §3, §4, §5, §6, §7, §8

C. parapsilosis = test: MIC by impregnated disk method, Candida parapsilosis; format: cell-based; conditions: Lodderomyces parapsilosis
Description: as §1, §2, §3, §4, §5, §6, §7, §8

## C[C@@H]1[C@H](O)[C@@H](C)/C=C/C=C/C=C/C=C/C=C/C=C/C=C/[C@H](O[C@@H]2O[C@H](C)[C@@H](O)[C@H](N)[C@@H]2O)C[C@@H]2O[C@](O)(C[C@@H](O)C[C@@H](O)[C@H](O)CC[C@@H](O)C[C@@H](O)CC(=O)O[C@H]1C)C[C@H](O)[C@H]2C(=O)O [Amphotericin B, amphotericin B]
Cryptococcus neoformans [1]; read-out: Minimum Inhibitory Concentration, Disk, C. neoformans isolate 2
  MIC: 0.2 µg/mL (≈ 0.216 µM)
Cryptococcus neoformans [1]; read-out: Minimum Inhibitory Concentration, Disk, C. neoformans isolate 3
  MIC: 0.5 µg/mL (≈ 0.541 µM)
Cryptococcus neoformans [1]; read-out: Minimum Inhibitory Concentration, Disk, Cryptococcus neoformans isolate 1
  MIC: 0.4 µg/mL (≈ 0.433 µM)
C. tropicalis [2]
  MIC: 0.8 µg/mL (≈ 0.866 µM)
Torulopsis glabrata
  MIC: 0.2 µg/mL (≈ 0.216 µM)
Trichosporon sp. [3]
  MIC: 0.9 µg/mL (≈ 0.974 µM)
[4]; in the presence of acid
  stability in acid: unstable in the presence of acid
[4]; upon incubation
  thermal stability: subject to thermal destruction upon incubation
[4]; water
  solubility in water: insoluble in water
Trichosporon sp. [5]
  MIC: 1.1 µg/mL (≈ 1.19 µM)
C. tropicalis [6]
  MIC: 0.7 µg/mL (≈ 0.758 µM)
Geotrichum candidum
  MIC: 0.9 µg/mL (≈ 0.974 µM)
Cryptococcus neoformans [7]; read-out: Minimum Inhibitory Concentration, Broth, C. neoformans isolate 2
  MIC: 0.4 µg/mL (≈ 0.433 µM)
Cryptococcus neoformans [7]; read-out: Minimum Inhibitory Concentration, Broth, C. neoformans isolate 3
  MIC: 0.5 µg/mL (≈ 0.541 µM)
Cryptococcus neoformans [7]; read-out: Minimum Inhibitory Concentration, Broth, Cryptococcus neoformans isolate 1
  MIC: 0.5 µg/mL (≈ 0.541 µM)
Candida albicans [8]; isolate 3, read-out: Minimum Fungicidal Concentration, Disk
  MFC: 0.9 µg/mL (≈ 0.974 µM)
Candida albicans [8]; isolate 4, read-out: Minimum Fungicidal Concentration, Disk
  MFC: 0.9 µg/mL (≈ 0.974 µM)
Candida albicans [8]; isolate 6, read-out: Minimum Fungicidal Concentration, Disk
  MFC: 5 µg/mL (≈ 5.41 µM)
Candida albicans [8]; read-out: Minimum Fungicidal Concentration, Disk, isolate 1
  MFC: 1.4 µg/mL (≈ 1.52 µM)
Candida albicans [8]; read-out: Minimum Fungicidal Concentration, Disk, isolate 2
  MFC: 1.6 µg/mL (≈ 1.73 µM)
Candida albicans [8]; read-out: Minimum Fungicidal Concentration, Disk, isolate 5
  MFC: 1.8 µg/mL (≈ 1.95 µM)
Candida albicans [9]; isolate 1, read-out: Minimum Inhibitory Concentration, Disk
  MIC: 0.3 µg/mL (≈ 0.325 µM)
Candida albicans [9]; isolate 2, read-out: Minimum Inhibitory Concentration, Disk
  MIC: 0.6 µg/mL (≈ 0.649 µM)
Candida albicans [9]; isolate 3, read-out: Minimum Inhibitory Concentration, Disk
  MIC: 0.08 µg/mL (≈ 0.0866 µM)
Candida albicans [9]; isolate 4, read-out: Minimum Inhibitory Concentration, Disk
  MIC: 0.6 µg/mL (≈ 0.649 µM)
Candida albicans [9]; isolate 5, read-out: Minimum Inhibitory Concentration, Disk
  MIC: 0.9 µg/mL (≈ 0.974 µM)
Candida albicans [9]; isolate 6, read-out: Minimum Inhibitory Concentration, Disk
  MIC: 1 µg/mL (≈ 1.08 µM)
C. parapsilosis; read-out: Minimum Inhibitory Concentration, Disk, C. parapsilosis isolate 1
  MIC: 0.5 µg/mL (≈ 0.541 µM)
C. parapsilosis; read-out: Minimum Inhibitory Concentration, Disk, C. parapsilosis isolate 2
  MIC: 0.6 µg/mL (≈ 0.649 µM)
